Assay [1] has as its target T1, human EAA4a receptor (Homo sapiens, UniProt Q13002). The class given is cell-based. More on the design: transported to the cell surface in mature form, lacking the signal peptide and consisting of 877 amino acids; expressed in transfected cells; host or cells: Xenopus oocytes (stage V or VI), nuclear injection of pcDNAI/humEAA4a DNA. Particulars: for oocyte response to agonist: tested at -60, -80 and -100 mV. Here is the method:
Xenopus oocytes (stage V or VI) were harvested and the nucleus of the oocytes was injected with 5 ng of pcDNAI/humEAA4a DNA.

Assay [2] deals with T1, human EAA4a receptor. Particulars: COS cell membranes.
Procedure: Transfected cells in the frozen state were resuspended in ice-cold distilled water using a hand homogenizer and centrifuged for 20 miutes at 50,000 g. The supernatant was discarded and the membrane pellet stored frozen at −70° C.
Proteins were determined using the Pierce Reagent with BSA as standard.
Binding assays were then performed, using an amount of COS-derived membrane equivalent to 25-100 ug as judged by protein determination and selected radiolabelled ligand. […] Samples were incubated on ice for 60 minutes, and bound and free ligand were then separated by rapid filtration using a PHD cell harvester and GF/B filters pre-soaked in ice-cold 0.3% polyethyleneimine. Filters were washed twice in 4 ml of the cold incubation buffer, then placed in scintillation vials with 5 ml of Beckman Ready-Protein Plus scintillation cocktail for counting.
Samples were incubated on ice for 60 minutes in plastic minivials, and bound and free ligand were separated by centrifugation for 30 minutes at 50,000 g. Pellets were washed twice in 4 ml of the cold incubation buffer, then 5 ml of Beckman Ready-Protein Plus scintillation cocktail was added, for counting.

Like-named read-outs stand apart in the source and are kept apart here.

T1 sequence (Q13002 32-908): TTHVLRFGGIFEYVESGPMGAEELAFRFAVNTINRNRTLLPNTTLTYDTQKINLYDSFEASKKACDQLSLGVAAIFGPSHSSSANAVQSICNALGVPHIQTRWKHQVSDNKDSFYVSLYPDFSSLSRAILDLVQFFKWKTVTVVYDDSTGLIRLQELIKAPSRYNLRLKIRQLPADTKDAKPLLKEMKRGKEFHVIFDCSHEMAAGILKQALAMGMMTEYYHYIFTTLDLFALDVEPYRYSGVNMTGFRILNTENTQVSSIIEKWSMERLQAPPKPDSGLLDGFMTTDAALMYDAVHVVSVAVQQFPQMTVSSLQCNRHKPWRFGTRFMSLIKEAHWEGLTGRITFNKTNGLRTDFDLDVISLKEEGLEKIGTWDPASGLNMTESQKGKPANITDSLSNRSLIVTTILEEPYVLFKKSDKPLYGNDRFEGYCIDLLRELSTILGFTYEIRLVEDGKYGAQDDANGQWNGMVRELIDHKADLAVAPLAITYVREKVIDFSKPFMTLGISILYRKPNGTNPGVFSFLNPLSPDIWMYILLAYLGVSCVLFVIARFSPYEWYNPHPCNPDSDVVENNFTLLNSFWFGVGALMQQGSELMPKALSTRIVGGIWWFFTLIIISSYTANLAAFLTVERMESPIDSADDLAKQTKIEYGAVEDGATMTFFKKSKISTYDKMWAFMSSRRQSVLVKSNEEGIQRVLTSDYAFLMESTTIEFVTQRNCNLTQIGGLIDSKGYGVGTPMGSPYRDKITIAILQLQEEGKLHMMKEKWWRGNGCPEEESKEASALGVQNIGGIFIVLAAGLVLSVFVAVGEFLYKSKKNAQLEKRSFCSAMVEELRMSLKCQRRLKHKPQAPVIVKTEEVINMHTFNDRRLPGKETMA

Consider `O=C1N=c2cc([N+](=O)[O-])c([N+](=O)[O-])cc2=NC1=O` [DNQX, 6,7-dinitroquinoxaline-2,3-dione], for which, on human EAA4a receptor [1] (DNQX 2×10^-6M, FIG. 10), the “effect on the dose/response curve for L-glutamate” value is recorded as “parallel shift of the dose/response curve for L-glutamate to the right”. Moreover, at human EAA4a receptor [1] (oocytes, FIG. 8), the “effect on the glutamate response” value was “blocked the glutamate response”.

As for `CN[C@H](CC(=O)O)C(=O)O` [NMDA, N-methyl-D-aspartate], the “binding to EAA4a receptor” value at human EAA4a receptor [2] is “little or no demonstrable binding”. Moreover, the “oocyte response to agonist” value on human EAA4a receptor [1] (10^-4M) and on human EAA4a receptor [1] (NMDA 10^-4M with glycine 10^-6M) was “did not respond” throughout.

For the origin of these results see US6376200B1, “Kainate-binding, human CNS receptors of the EAA4 family” (priority 1992, dated 2002).
